Laboratory results from ChEMBL document CHEMBL3585343, “Fragment-Based Discovery of Low-Micromolar ATAD2 Bromodomain Inhibitors” (J Med Chem, 2015).
Values after ≈ are worked out from the molar mass of the structure shown.

Experiments:
[1] = Distribution coefficient, log D of the compound at pH 7.4 by chromatographic method; assay type: physicochemical
[2] = molecular target: Bromodomain-containing protein 4 (Homo sapiens, UniProt O60885, Y390A)
[3] = molecular target: Bromodomain-containing protein 3 (Homo sapiens, UniProt Q15059, Y348A); assay: Binding affinity to 6-His-Thr BRD3 (1 to 435) BD1 (unknown origin) harboring BD2 Y348A mutant
Chain of Bromodomain-containing protein 3 (Homo sapiens, UniProt Q15059, Y348A) (Q15059 2-726 Y348A limits assumed): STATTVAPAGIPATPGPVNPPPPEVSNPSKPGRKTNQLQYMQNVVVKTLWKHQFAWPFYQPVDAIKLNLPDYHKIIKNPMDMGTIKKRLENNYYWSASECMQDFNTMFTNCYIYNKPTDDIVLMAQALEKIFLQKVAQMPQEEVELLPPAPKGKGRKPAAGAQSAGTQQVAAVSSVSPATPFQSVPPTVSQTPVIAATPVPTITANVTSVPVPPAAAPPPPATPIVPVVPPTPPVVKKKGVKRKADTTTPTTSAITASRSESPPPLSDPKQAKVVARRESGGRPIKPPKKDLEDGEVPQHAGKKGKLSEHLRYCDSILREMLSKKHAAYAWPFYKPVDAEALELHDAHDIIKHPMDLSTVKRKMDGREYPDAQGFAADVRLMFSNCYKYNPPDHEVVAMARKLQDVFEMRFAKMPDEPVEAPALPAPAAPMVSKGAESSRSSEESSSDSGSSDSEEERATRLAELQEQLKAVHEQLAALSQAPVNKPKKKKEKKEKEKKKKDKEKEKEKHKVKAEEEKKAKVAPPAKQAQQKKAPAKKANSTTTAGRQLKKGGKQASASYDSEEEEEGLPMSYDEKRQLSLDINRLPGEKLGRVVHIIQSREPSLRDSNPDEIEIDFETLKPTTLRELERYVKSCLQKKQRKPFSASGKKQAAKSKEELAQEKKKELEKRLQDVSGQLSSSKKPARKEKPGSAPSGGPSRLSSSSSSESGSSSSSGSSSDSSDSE

[4] = molecular target: Bromodomain-containing protein 3 (Homo sapiens, UniProt Q15059, Y37A); assay: Binding affinity to BRD3 6-His-Thr BRD3 (1 to 435) BD2 (unknown origin) harboring BD1 Y37A mutant
Chain of Bromodomain-containing protein 3 (Homo sapiens, UniProt Q15059, Y37A) (Q15059 whole entry, looked up, stated change not applied): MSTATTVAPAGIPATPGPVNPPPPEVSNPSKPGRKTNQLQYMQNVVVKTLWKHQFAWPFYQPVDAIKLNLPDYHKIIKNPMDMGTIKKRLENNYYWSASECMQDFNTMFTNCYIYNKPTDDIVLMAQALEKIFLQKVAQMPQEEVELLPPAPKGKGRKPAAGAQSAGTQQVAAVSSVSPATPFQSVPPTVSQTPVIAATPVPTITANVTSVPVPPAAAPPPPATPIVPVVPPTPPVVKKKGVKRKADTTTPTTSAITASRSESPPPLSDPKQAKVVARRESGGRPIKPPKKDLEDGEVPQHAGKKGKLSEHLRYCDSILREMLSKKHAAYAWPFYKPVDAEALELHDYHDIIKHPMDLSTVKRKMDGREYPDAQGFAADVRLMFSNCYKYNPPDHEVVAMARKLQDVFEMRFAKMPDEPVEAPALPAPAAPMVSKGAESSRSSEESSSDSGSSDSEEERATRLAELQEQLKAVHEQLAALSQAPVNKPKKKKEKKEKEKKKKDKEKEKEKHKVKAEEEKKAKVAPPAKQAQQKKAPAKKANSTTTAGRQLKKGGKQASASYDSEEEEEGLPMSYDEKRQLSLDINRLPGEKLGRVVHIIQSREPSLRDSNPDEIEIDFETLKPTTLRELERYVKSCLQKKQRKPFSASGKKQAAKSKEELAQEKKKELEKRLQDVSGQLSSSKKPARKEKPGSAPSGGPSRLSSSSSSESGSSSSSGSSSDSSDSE

[5] = molecular target: Bromodomain testis-specific protein (Homo sapiens, UniProt Q58F21, Y309A); assay: Binding affinity to 6-His-FLAG-Tev-BRDT BD1 (1 to 397) (unknown origin) harboring BD2 Y309A mutant
[6] = molecular target: Bromodomain testis-specific protein (Homo sapiens, UniProt Q58F21, Y66A); assay: Binding affinity to 6-His-FLAG-Tev-BRDT BD2 (1 to 397) (unknown origin) harboring BD1 Y66A mutant
[7] = Solubility of the compound in phosphate buffered saline at pH 7.4 after 1 hr by CLND method; assay type: physicochemical
[8] = Lipophilicity, log P of the compound; assay type: physicochemical; settings: octanol/water
[9] = Permeability across phosphatidyl choline membrane at pH 7.4 after 3 hrs by HPLC with UV detection method; assay type: ADME; settings: not told, read-out: permeability
[10] = molecular target: Bromodomain-containing protein 2 (Homo sapiens, UniProt P25440, Y386A)
Chain of Bromodomain-containing protein 2 (Homo sapiens, UniProt P25440, Y386A) (P25440 whole entry Y386A): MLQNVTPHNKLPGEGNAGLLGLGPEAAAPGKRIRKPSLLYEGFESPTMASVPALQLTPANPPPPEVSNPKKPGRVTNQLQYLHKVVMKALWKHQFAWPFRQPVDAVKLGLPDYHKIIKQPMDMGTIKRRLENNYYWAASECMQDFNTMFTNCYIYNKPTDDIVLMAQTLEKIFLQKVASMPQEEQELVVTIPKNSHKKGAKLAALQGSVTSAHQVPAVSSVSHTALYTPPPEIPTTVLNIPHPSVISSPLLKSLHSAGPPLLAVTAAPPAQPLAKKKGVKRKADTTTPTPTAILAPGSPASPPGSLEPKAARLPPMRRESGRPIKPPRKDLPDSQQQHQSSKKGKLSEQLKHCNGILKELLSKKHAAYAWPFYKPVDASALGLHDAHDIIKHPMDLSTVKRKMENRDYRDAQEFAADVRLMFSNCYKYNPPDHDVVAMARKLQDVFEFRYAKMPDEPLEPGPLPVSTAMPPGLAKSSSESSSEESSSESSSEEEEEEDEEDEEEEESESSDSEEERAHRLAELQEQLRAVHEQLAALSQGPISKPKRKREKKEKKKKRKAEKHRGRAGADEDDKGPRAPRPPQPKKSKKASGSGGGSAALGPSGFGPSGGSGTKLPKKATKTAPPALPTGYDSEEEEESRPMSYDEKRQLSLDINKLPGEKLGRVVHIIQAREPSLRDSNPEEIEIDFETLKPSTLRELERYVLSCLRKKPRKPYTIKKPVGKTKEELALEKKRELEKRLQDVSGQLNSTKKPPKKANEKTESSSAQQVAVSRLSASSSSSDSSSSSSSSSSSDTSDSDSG

[11] = molecular target: Bromodomain-containing protein 2 (Homo sapiens, UniProt P25440, Y113A)
Chain of Bromodomain-containing protein 2 (Homo sapiens, UniProt P25440, Y113A) (P25440 whole entry Y113A): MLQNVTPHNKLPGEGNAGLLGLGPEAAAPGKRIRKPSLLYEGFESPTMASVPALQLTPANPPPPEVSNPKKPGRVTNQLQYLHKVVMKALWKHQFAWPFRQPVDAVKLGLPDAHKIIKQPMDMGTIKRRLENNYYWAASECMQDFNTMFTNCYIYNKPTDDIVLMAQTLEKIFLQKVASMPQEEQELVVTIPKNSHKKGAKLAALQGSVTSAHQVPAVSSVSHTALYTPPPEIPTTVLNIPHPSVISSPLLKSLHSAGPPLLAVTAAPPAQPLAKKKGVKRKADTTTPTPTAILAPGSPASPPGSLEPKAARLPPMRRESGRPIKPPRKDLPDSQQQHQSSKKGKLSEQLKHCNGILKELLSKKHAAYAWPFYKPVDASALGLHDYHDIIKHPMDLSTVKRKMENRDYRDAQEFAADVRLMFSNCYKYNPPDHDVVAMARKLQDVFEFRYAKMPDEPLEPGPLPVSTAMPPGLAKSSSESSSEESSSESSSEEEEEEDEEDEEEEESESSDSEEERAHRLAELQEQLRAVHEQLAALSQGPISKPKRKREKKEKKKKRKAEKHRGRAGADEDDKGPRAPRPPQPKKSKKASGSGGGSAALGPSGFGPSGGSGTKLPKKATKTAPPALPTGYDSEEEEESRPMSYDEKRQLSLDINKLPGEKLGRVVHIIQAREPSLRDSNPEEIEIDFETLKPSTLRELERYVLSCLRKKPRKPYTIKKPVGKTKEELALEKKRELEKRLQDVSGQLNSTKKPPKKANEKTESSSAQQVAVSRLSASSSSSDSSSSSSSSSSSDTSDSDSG

[12] = molecular target: Bromodomain-containing protein 4 (Homo sapiens, UniProt O60885, Y97A)

| Compound | chromatographic logD [1] | IC50 [2] | also measured |
| --- | --- | --- | --- |
| Cc1ncccc1-c1cnc(NC2CCNCC2)c2[nH]c(=O)c(C)cc12 | 0.8 | 6.31 µM |  |
| Cc1cncc(-c2cnc(NC3CCNCC3)c3[nH]c(=O)c(C)cc23)c1 | 1.2 |  | IC50 [3]: 7.94 µM; IC50 [4]: 20 µM; IC50 [5]: 7.94 µM; IC50 [6]: 31.6 µM; solubility kinetic at 1 h [7]: ≥ 207 µM; logP [8]: 2.4; Papp at 3 h [9]: < 0.3 ×10⁻⁶ cm/s; IC50 [10]: 6.31 µM; IC50 [11]: 20 µM |
| Cc1cc2c(-c3cncc(Cl)c3)cnc(NC3CCNCC3)c2[nH]c1=O | 1.7 | 6.31 µM |  |
| Cc1cncc(-c2cnc(NC3CCNCC3)c3[nH]c(=O)c(C)cc23)c1C | 1.4 | 7.94 µM |  |
| Cc1cc2c(-c3cncc(COC(N)=O)c3)cnc(NC3CCNCC3)c2[nH]c1=O | 0.3 |  |  |
| Cc1cc2c(-c3cncnc3)cnc(NC3CCNCC3)c2[nH]c1=O | 0.3 | 15.8 µM |  |
| Cc1cc2ccccc2[nH]c1=O |  | 39.8 µM |  |
| Cc1cc2cccc(NCCN(C)C)c2[nH]c1=O |  | 25.1 µM |  |
| CCCNc1cccc2cc(C)c(=O)[nH]c12 |  | > 50.1 µM |  |
| Cc1cc2cccc(NCCO)c2[nH]c1=O |  | 39.8 µM |  |
| Cc1cc2cccc(NCc3ncc[nH]3)c2[nH]c1=O |  | 50.1 µM |  |
| COCCNc1cccc2cc(C)c(=O)[nH]c12 |  | > 50.1 µM |  |
| Cc1cc2cccc(NCCC(=O)O)c2[nH]c1=O |  | > 50.1 µM |  |
| Cc1cc2cccc(NCCCN(C)C)c2[nH]c1=O |  | 10 µM |  |
| Cc1cc2ccnc(NC3CCNCC3)c2[nH]c1=O | 0.6 |  |  |
| Cc1cc2ccnc(NCCC3CCNCC3)c2[nH]c1=O |  | 12.6 µM |  |
| Cc1cc2ccnc(NCCC3CCCNC3)c2[nH]c1=O (configuration not stated) |  | 25.1 µM |  |
| Cc1cc2ccnc(NCC(C)(C)CN(C)C)c2[nH]c1=O |  | 158 µM |  |
| Cc1cc2ccnc(N[C@@H]3CCCNC3)c2[nH]c1=O |  | 15.8 µM |  |
| Cc1cc2ccnc(NC3CCN(C)CC3)c2[nH]c1=O | 0.5 |  |  |
| Cc1cc2ccnc(NC3CCN(C4CC4)CC3)c2[nH]c1=O | 2.8 |  |  |
| COCCN1CCC(Nc2nccc3cc(C)c(=O)[nH]c23)CC1 | 1.4 |  |  |
| Cc1cc2ccnc(N[C@H]3C[C@H]4CC[C@@H](C3)N4C)c2[nH]c1=O | 1.2 |  |  |
| Cc1cc2ccnc(N[C@@H]3C[C@H]4CC[C@@H](C3)N4C)c2[nH]c1=O | 1 |  |  |
| Cc1cc2c(-c3ccccn3)cnc(NC3CCNCC3)c2[nH]c1=O | 1 | 5.01 µM |  |

Further compounds by falling IC50 [2], results first:

| chromatographic logD [1] | IC50 [2] | Compound | also measured |
| --- | --- | --- | --- |
|  | 5.01 µM | Cc1cc2cccc(NCCCO)c2[nH]c1=O |  |
| -0.2 | 3.98 µM | Cc1cc2c(-c3cncc(C(N)=O)c3)cnc(NC3CCNCC3)c2[nH]c1=O |  |
| 1.4 | 3.98 µM | COCCCN1CCC(Nc2nccc3cc(C)c(=O)[nH]c23)CC1 |  |
| 0.9 | 3.16 µM | Cc1ccncc1-c1cnc(NC2CCNCC2)c2[nH]c(=O)c(C)cc12 |  |
| 1 | 3.16 µM | Cc1cc2c(-c3ccncc3)cnc(NC3CCNCC3)c2[nH]c1=O |  |
| 0 | 2 µM | Cc1cc2c(-c3cncc(N)c3)cnc(NC3CCNCC3)c2[nH]c1=O |  |
| 0.8 | 2 µM | Cc1cc2c(-c3cccnc3)cnc(NC3CCNCC3)c2[nH]c1=O |  |
| 0.4 | 1.26 µM | Cc1cc2c(-c3cc[nH]n3)cnc(NC3CCNCC3)c2[nH]c1=O |  |
| 1.6 | 1.26 µM | COc1ccc(-c2cnc(NC3CCNCC3)c3[nH]c(=O)c(C)cc23)cn1 |  |
| 1.1 | 1.26 µM | COc1cncc(-c2cnc(NC3CCNCC3)c3[nH]c(=O)c(C)cc23)c1 | IC50 [3]: 6.31 µM; IC50 [4]: 20 µM; IC50 [5]: 6.31 µM; IC50 [6]: 25.1 µM; solubility kinetic at 1 h [7]: 250 µM (≈ 91.4 µg/mL); logP [8]: 2.7; Papp at 3 h [9]: < 0.3 ×10⁻⁶ cm/s; IC50 [12]: 15.8 µM; IC50 [10]: 3.98 µM; IC50 [11]: 20 µM |
| 1.1 | 1 µM | Cc1ccc(-c2cnc(NC3CCNCC3)c3[nH]c(=O)c(C)cc23)cn1 |  |
| 1.4 | 1 µM | CC(=O)N1CCc2cc(-c3cnc(NC4CCNCC4)c4[nH]c(=O)c(C)cc34)ccc21 |  |
| 0.2 | 0.794 µM | Cc1cc2c(-c3cncc(NS(C)(=O)=O)c3)cnc(NC3CCNCC3)c2[nH]c1=O |  |
| 2.5 | 0.794 µM | Cc1cc2c(-c3ccccc3)cnc(NC3CCNCC3)c2[nH]c1=O |  |
| 0 | 0.794 µM | Cc1cc2c(-c3cn[nH]c3)cnc(NC3CCNCC3)c2[nH]c1=O |  |
| 1.3 | 0.631 µM | Cc1cc2c(-c3cccc(O)c3)cnc(NC3CCNCC3)c2[nH]c1=O |  |
| 1.2 | 0.126 µM | Cc1cc2c(-c3cccc4[nH]ncc34)cnc(NC3CCNCC3)c2[nH]c1=O |  |
